From patent US20230011398A1, “COMBINATION THERAPY APPROACH TO ELIMINATE HIV INFECTIONS” (priority 2019, published 2023) come the findings set out here.

The test system of series [1] is CD4+ T cells with or without infection by HIV-1. In words: Western blot of caspases, Bcl-2 family and LC3 after IDB. Type of series: cell-based, human. As to the method: Western blot. PBMC CD4^+ T cells with or without infection by HIV-1 cultured for 4 days with CCL19 as in FIG. 1a. The cells were then cultured in the absence or presence of 0.1 μM IDB for 24 h. The cells were lysed in lysis buffer containing 50 mM HEPES, pH 7.5, 150 mM NaCl, 1 mM EDTA, 1% Triton X-100, 1X protease inhibitor mixture (Roche Applied Science) and 10 μM Benzyloxycarbonyl-Val-Ala-Asp (OMe) fluoromethylketone (zVAD-FMK, ENZO Life Sciences). The cell lysates were determined by the Bradford assay (Bio-Rad). Samples were used for SDS-PAGE and Western blot analyses by probing with different antibodies: monoclonal antibodies to caspase-9 (1:1,000, M054-3, clone 5B4) and caspase-7 (1:1,000, M053-3, clone 4G2) from Medical & Biological Laboratories; polyclonal rabbit antibodies to Atg-7 (1:1,000, 2631S), cleaved caspase-9 (1:1,000, 52873s), caspase-3 (1:1,000, 9665s); cleaved caspase-3 (1:1,000, 9501s), caspase-6 (1:1,000, 9762s), Mc1-1 (1:1,000, 5453s), Bcl-2 (1:1,000, 4223s), Bcl-xL (1:1,000, 2762s), Bak (1:1,000, 12105s), Bax (1:1,000, 2772s), LC3 (1:1000, 4108s) from Cell Signaling Technology and monoclonal antibody to β-Actin (1:50,000, sc-47778, clone C4) from Santa Cruz Biotechnology. The blots were them incubated with HRP-conjugated goat anti-Mouse IgG1 (1:50,000, 1070-05, Southern Biotech) or HRP-conjugated goat anti-Rabbit IgG (1:50,000, ab6721, Abcam) and developed using SuperSignal West Dura Extended Duration Substrate (ThermoFisher).

In series [2] the test system is PBMCs from HIV-1-infected patients. Nature of the series: In vitro treatment of PBMCs from HIV-1-infected patients, HIV-1 mRNA by RT-PCR. It is filed as cell-based, human. The settings on record: outpatients undergoing ART, no active virus production. As to the method: Quantification of HIV-1 mRNA and DNA. HIV-1 mRNA was measured by RT-PCR similar to the described protocols. LTR-GAG was amplified with forward primer (LTR-GAG-AF), 5′-[…]-3′ (SEQ. ID NO. 9) and reverse primer (LTR-GAG-AR), 5′-[…] […]-3′ (SEQ. ID NO. 10), and detected with the LTR-GAG probe, SHEX/[…]/ZEN /[…]/3IABkFQ (SEQ. ID NO. 11). HIV-1 pol-1 was amplified with POL-1 forward primer (POL-1-AF), 5′-[…]-3′ (SEQ. ID NO. 12) and reverse primer (POL-1-AR), 5′-[…]-3′ (SEQ. ID NO. 13), and detected with the pol-1 probe FAM/[…]/ZEN/[…]/3IABKFQ (SEQ. ID NO. 14) in iTaq Universal Probes Supermix (Bio-Rad). The reaction was carried out by iTaq Universal Probes Supermix (Bio-Rad) with a QuantStudio 5 Real-Time PCR System and analyzed with the QuantStudio Design and Analysis Software (Applied Biosystem). Cycle threshold (Ct) values were calibrated using standard curve generated with the standard samples with known amounts of viral copies.
Treatment of PBMCs from HIV-1-infected patients. PBMCs from HIV-1 patients were resuspended in RPMI complete medium containing and 0.3 ng/ml IL-2 and 50 ng/ml M-CSF and cultured with 0.2 μM BMS-626529, 0.2 μM raltegravir, 25 nM IDB, 20 nM ABT-263, 0.1 μM SAR405 and 0.25 μM JQ1 for 2 days as one cycle of treatments. The cells were then washed and cultures in the same medium for next cycle of culture. […]

Another series relates to HIV-1-infected T cells. In words: Annexin V / DEVD-FITC / p24 cell death assay in T cells with or without HIV-1 infection. Type of series: cell-based, human. As to the method: Naïve T cells, activated T cells, CMT or EMT with or without infection with HIV-1 (NL4-3, 1 MOI) were cultured for 4 days in the presence of 30 nM CCL19 and 0.3 ng/ml IL-2 for 4 days to establish latent HIV infection. […] The cells were then incubated with 1 μM FITC-DEVD-FMK (Biovision), followed by staining with APC-Annexin V (Biolegend) and intracellular staining with PE-anti-HIV p24. The cells were analyzed by flow cytometry. The percentage of cell death was calculated by the loss of live cells negative for annexin V and DEVD staining by comparing treated and untreated groups: (untreated—treated)/untreated x 100%.

In series [3] the test system is HIV-1-infected cells and uninfected bystander T cells. Nature of the series: Mixed culture of HIV-1-infected and CellTrace Violet-labeled uninfected T cells. As to conditions: alone or together, 0.2 μM BMS-626529 present, 48 h. The protocol:
To determine the specificity in the killing of HIV-1 infected cells, uninfected CD4 cells were labeled with CellTrace Violet dye (ThermoFisher Scientific) and mixed with HIV-1-infected cells at the ratio of 1:1. The cells were resuspended in RIPMI complete medium containing 0.2 μM BMS-626529, with 0.1 μM IDB, 0.2 μM ABT-263 and 2 μM SAR405 as indicated for 48 h. The cells were incubated with 1 μM FITC-DEVD-FMK, followed by staining with APC-Annexin and analyses by flow cytometry.

The mark [4] stands for this setting: HIV-1-infected T cells, IDB 24 h.

Take `CC1=C[C@]23C(=O)[C@@H](C=C(COC(=O)c4ccccc4)[C@@H](O)[C@]2(O)[C@H]1OC(=O)c1ccccc1)[C@H]1[C@@H](C[C@H]3C)C1(C)C` [IDB, ingenol 3,20-dibenzoate]: the “expression of anti-apoptotic Bcl-xL and Mcl-1” value in series [1] (CD4+ T cells not infected with HIV-1, IDB 24 h) is reported as “increased the expression”. In series [1] (setting [4]), the “activation of caspase-9, caspase-3, caspase-6 and caspase-7” value was “induced the activation”; the “expression of Bcl-xL and Mcl-1” value is “induced the expression of Bcl-xL and Mcl-1”. For the same compound, in series [1] (IDB 24 h), the “expression of anti-apoptotic Bcl-2” value is “did not change”. For the same compound, the “expression of LC3” value in series [1] (T cell with or without HIV-1 infections, IDB 24 h) is listed as “induced the expression of LC3”. Moreover, the “increase in Bcl-xL expression in HIV-1-infected cells” value in series [1] (compared with uninfected controls, IDB 24 h) is reported as “greater than in uninfected controls”. In series [2], the “HIV-1 detection in PBMCs after stimulation with IDB” value was “could be detected”. In the series with HIV-1-infected T cells (0.1 μM IDB, 48 h), the “cell death in HIV-1-infected T cells (Annexin V, cleavage of DEVD)” value is given as “induced cell death in HIV-1-infected T cells” and the “cell death in uninfected cells” value is “relatively resistant”. Moreover, the “caspase-3 activities measured by cleavage of DEVD” value in the series with HIV-1-infected T cells (HIV-1-infected CMT, 100 nM IDB 24 h) is recorded as “increased caspase-3 activities”. In the series with HIV-1-infected T cells (NL4-3 1 MOI, 100 nM IDB 24 h), the “cell death in HIV-1-infected CMT, Annexin V staining” value is “induced cell death”. Moreover, in series [3], the “killing of HIV-1-infected cells in mixed culture” value is recorded as “killed HIV-1-infected cells” and the “killing of uninfected bystander cells in mixed culture” value was “resistant”.
